pIC50: −log10 of the molar value.
What was measured:
[1] = molecular target: T1, PDGFR-β (NIH 3T3 cell lysate) (Homo sapiens, UniProt P09619); experiment: PDGFR bioassay, ELISA; format: biochemical; details: read-out: bio PDGF IC50
T1 construct: host or cells: NIH 3T3

GST-Flk1 = molecular target: T2, GST-Flk1 (Mus musculus, UniProt P35918); experiment: GST-FLK-1 bioassay (bio flkGST), ELISA; format: biochemical
T2 construct: GST-Flk1cd purified from sf9 recombinant baculovirus transformation (SUGEN, Inc.); host or cells: Sf9 (baculovirus)

EGFR (A431 cell lysate) = molecular target: T3, EGFR (A431 cell lysate) (Homo sapiens, UniProt P00533); experiment: EGFR bioassay, ELISA; format: biochemical; details: read-out: bio EGF IC50
T3 construct: A431 cell lysate (SUGEN, Inc.); host or cells: A431

[2] = molecular target: T4, HER-2 kinase (EGFr/HER-2 chimera/3T3-C7 cell line) (Homo sapiens, UniProt P04626); experiment: Cellular HER-2 kinase assay, whole-cell ELISA; format: cell-based; details: read-out: Her2 Kinase IC50
T4 construct: fused on or other part: EGFR extracellular part, stimulated by EGF and captured by the anti-EGFR antibody SUMO1; P00533 (Epidermal growth factor receptor)

human cdk2/cyclin A = molecular target: T5, human cdk2/cyclin A (Homo sapiens, UniProt P24941); experiment: CDK2/cyclin A scintillation proximity assay (cdk2spa); format: biochemical; details: read-out: cdk2spa C50
T5 construct: host or cells: Sf9

T3 sequence (P00533 25-1210): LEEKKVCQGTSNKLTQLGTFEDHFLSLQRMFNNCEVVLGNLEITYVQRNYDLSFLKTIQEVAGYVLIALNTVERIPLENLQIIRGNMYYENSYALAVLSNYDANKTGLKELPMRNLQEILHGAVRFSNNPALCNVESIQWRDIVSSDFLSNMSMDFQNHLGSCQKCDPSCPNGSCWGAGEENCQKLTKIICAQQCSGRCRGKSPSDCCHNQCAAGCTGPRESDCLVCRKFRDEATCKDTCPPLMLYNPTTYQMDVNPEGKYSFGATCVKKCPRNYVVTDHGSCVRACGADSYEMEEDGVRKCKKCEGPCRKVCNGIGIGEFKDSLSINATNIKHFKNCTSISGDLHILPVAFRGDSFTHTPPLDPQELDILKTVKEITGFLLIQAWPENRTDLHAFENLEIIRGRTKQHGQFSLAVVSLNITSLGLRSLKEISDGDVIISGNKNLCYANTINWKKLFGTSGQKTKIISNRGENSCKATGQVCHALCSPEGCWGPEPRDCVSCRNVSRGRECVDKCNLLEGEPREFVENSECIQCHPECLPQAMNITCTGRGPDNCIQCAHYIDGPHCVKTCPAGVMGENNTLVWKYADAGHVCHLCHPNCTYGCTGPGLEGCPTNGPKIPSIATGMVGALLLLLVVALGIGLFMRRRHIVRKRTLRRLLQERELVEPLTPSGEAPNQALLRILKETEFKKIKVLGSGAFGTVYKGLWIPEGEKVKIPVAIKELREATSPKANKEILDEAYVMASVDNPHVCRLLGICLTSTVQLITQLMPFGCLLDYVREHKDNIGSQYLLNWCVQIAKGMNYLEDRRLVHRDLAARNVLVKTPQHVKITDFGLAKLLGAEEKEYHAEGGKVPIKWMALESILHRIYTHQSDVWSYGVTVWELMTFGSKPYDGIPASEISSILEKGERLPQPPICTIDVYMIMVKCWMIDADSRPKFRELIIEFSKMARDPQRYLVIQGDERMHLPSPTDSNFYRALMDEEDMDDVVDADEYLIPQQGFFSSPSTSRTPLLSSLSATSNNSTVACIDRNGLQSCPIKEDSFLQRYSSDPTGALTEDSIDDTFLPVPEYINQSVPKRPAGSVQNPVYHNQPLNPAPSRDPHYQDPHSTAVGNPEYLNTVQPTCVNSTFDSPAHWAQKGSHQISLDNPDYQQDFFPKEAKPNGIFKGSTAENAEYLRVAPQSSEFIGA
T4 sequence (P04626 720-987 limits assumed, change not shown): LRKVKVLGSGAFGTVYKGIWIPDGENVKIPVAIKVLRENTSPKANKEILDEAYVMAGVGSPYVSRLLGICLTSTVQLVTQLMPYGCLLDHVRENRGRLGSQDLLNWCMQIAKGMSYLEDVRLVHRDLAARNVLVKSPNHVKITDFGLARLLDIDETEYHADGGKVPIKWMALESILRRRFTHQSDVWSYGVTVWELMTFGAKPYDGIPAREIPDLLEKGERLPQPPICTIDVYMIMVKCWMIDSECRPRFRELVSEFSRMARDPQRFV
T2 sequence (P35918 784-1345 limits assumed): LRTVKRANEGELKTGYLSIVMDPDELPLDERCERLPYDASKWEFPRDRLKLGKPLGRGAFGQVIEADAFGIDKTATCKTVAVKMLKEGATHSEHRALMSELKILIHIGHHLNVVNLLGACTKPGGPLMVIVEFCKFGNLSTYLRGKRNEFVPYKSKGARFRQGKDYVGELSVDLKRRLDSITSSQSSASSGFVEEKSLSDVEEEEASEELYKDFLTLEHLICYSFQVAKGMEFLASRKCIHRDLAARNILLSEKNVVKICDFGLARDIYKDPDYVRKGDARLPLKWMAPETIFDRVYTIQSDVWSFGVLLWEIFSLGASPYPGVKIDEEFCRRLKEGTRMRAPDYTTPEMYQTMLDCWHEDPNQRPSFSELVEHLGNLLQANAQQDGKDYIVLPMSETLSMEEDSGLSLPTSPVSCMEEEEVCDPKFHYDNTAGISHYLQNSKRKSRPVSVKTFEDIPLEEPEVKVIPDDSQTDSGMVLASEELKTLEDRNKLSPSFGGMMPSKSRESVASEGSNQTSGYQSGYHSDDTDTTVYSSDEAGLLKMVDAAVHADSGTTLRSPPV
T1 sequence (P09619 33-1106): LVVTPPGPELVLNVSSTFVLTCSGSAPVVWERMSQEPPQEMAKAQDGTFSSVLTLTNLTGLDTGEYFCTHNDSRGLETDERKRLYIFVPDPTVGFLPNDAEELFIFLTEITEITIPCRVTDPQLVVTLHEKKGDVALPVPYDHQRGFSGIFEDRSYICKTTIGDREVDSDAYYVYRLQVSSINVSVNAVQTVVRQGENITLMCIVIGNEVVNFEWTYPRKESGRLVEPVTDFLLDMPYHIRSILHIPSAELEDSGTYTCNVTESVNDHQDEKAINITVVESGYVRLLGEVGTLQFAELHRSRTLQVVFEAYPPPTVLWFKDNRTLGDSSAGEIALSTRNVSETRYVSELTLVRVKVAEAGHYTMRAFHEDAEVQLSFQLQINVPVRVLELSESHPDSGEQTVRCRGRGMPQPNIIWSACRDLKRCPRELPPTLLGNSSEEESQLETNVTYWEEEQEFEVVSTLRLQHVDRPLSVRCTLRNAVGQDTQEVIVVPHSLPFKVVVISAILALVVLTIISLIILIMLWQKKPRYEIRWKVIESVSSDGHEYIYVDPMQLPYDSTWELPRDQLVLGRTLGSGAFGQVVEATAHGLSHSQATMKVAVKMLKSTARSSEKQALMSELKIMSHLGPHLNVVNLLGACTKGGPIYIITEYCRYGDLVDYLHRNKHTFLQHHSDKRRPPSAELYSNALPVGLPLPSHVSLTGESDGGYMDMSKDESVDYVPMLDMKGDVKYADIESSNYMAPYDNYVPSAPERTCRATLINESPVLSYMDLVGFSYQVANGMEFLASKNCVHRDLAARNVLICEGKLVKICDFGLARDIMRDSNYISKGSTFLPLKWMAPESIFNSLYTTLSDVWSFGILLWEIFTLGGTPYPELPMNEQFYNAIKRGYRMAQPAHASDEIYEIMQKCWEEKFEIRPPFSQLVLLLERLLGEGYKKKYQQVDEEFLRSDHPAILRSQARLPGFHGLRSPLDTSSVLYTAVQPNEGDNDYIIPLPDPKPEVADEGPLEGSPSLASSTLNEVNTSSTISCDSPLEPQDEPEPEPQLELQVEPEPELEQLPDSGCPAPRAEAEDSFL

| pIC50 [1] | pIC50 (GST-Flk1) | pIC50 (EGFR (A431 cell lysate)) | pIC50 [2] | pIC50 (human cdk2/cyclin A) | SMILES |
| --- | --- | --- | --- | --- | --- |
| < 4.00 | – | – | – | – | Cc1cc(C(=O)NCCCN2CCCC2)[nH]c1/C=C1\C(=O)Nc2ccc(Br)cc21 [Example 6, 5-(5-Bromo-2-oxo-1,2-dihydroindol-3-ylidenemethyl)-4-methyl-1H-pyrrole-2-carboxylic Acid (3-pyrrolidin-1-yl-propyl)amide] |
| < 4.00 | < 4.70 | < 4.00 | – | – | CCN(CC)CCCNC(=O)c1[nH]c(/C=C2\C(=O)Nc3ccc(OC)cc32)cc1C [Example 15, 5-(5-Methoxy-2-oxo-1,2-dihydroindol-3-ylidenemethyl)-3-methyl-1H-pyrrole-2-carboxylic Acid (3-diethylamino-propyl)amide] |
| – | < 4.70 | < 4.00 | – | – | CCN(CC)CCCNC(=O)c1[nH]c(/C=C2\C(=O)Nc3cc(OC)ccc32)cc1C [Example 16, 5-(6-Methoxy-2-oxo-1,2-dihydroindol-3-ylidenemethyl)-3-methyl-1H-pyrrole-2-carboxylic Acid (3-diethylamino-propyl)amide] |
| < 4.00 | < 4.70 | < 4.00 | – | – | Cc1c(C(=O)NCCCN2CCOCC2)[nH]c(/C=C2\C(=O)Nc3ccc(Br)cc32)c1C(=O)c1ccccc1 [Example 22, 4-Benzoyl-5-(5-bromo-2-oxo-1,2-dihydroindol-3-ylidenemethyl)-3-methyl-1H-pyrrole-2-carboxylic Acid (3-morpholin-4-ylpropyl)amide] |
| < 4.00 | – | – | – | – | Cc1c(C(=O)NCCCN2CCCC2)[nH]c(/C=C2\C(=O)Nc3ccc(Br)cc32)c1C(=O)c1ccccc1 [Example 24, 4-Benzoyl-5-(5-bromo-2-oxo-1,2-dihydroindol-3-ylidenemethyl)-3-methyl-1H-pyrrole-2-carboxylic Acid (3-pyrrolidin-1-ylpropyl)amide] |
| < 4.00 | – | – | – | – | Cc1c(C(=O)NCCCN2CCCC2)[nH]c(/C=C2\C(=O)Nc3cc(-c4ccccc4)ccc32)c1C(=O)c1ccccc1 [Example 25, 4-Benzoyl-3-methyl-5-(2-oxo-6-phenyl-1,2-dihydroindol-3-ylidenemethyl)-1H-pyrrole-2-carboxylic Acid (3-pyrrolidin-1-ylpropyl)amide] |
| < 4.00 | < 4.30 | – | – | – | CC(=O)c1c(/C=C2\C(=O)Nc3ccc(Br)cc32)[nH]c(C(=O)NCCCN2CCOCC2)c1C [Example 31, 4-Acetyl-5-(5-bromo-2-oxo-1,2-dihydroindol-3-ylidenemethyl)-3-methyl-1H-pyrrole-2-carboxylic Acid (3-morpholin-4-ylpropyl)amide] |
| – | – | < 4.00 | – | – | COc1ccccc1-c1ccc2c(c1)NC(=O)/C2=C\c1[nH]c(C)c(C(=O)NCCN2CCCC2)c1-c1ccccc1 [Example 43, 5-[6-(2-Methoxyphenyl)-2-oxo-1,2-dihydroindol-3-ylidenemethyl]-2-methyl-4-phenyl-1H-pyrrole-3-carboxylic Acid (2-pyrrolidin-1-ylethyl)amide] |
| < 4.00 | – | < 4.00 | < 4.00 | – | COc1ccccc1-c1ccc2c(c1)NC(=O)/C2=C\c1[nH]c(C)c(C(=O)NCCN(C)C)c1-c1ccccc1 [Example 45, 5-[6-(2-Methoxyphenyl)-2-oxo-1,2-dihydroindol-3-ylidenemethyl]-2-methyl-4-phenyl-1H-pyrrole-3-carboxylic Acid (2-dimethylaminoethyl)amide] |
| – | – | – | – | < 4.70 | CCN(CC)CCCNC(=O)c1c(C)[nH]c(/C=C2\C(=O)Nc3ccc(Br)cc32)c1-c1ccccc1 [Example 47, 5-(5-Bromo-2-oxo-1,2-dihydroindol-3-ylidenemethyl)-2-methyl-4-phenyl-1H-pyrrole-3-carboxylic Acid (3-diethylaminopropyl)amide] |
| > 6.11 | – | < 4.00 | < 4.00 | – | Cc1[nH]c(/C=C2\C(=O)Nc3cc(-c4ccccc4)ccc32)c(C)c1C(=O)NCCN(C)C [Example 49, 2,4-Dimethyl-5-(2-oxo-6-phenyl-1,2-dihydroindol-3-ylidenemethyl)-1H-pyrrole-3-carboxylic Acid (2-dimethylaminoethyl)amide] |
| > 6.11 | – | < 4.00 | < 4.00 | – | Cc1[nH]c(/C=C2\C(=O)Nc3ccc(Cl)cc32)c(C)c1C(=O)NCCN(C)C [Example 50, 5-(5-Chloro-2-oxo-1,2-dihydroindol-3-ylidenemethyl)-2,4-dimethyl-1H-pyrrole-3-carboxylic Acid (2-dimethylamino-ethyl)amide] |
| > 6.11 | – | – | – | – | COc1ccccc1-c1ccc2c(c1)NC(=O)/C2=C\c1[nH]c(C)c(C(=O)NCCN(C)C)c1C [Example 54, 5-[6-(2-Methoxyphenyl)-2-oxo-1,2-dihydroindol-3-ylidenemethyl]-2,4-dimethyl-1H-pyrrole-3-carboxylic Acid (2-dimethylaminoethyl)amide] |
| – | – | < 4.00 | – | – | CCN(CC)CCCNC(=O)c1c(C)[nH]c(/C=C2\C(=O)Nc3cc(-c4ccccc4)ccc32)c1C [Example 68, 2,4-Dimethyl-5-(2-oxo-6-phenyl-1,2-dihydroindol-3-ylidenemethyl)-1H-pyrrole-3-carboxylic Acid (3-diethylaminopropyl)amide] |
| – | – | < 4.00 | < 4.00 | – | CCN(CC)CCCNC(=O)c1c(C)[nH]c(/C=C2\C(=O)Nc3cccc(C(=O)Nc4ccc(OC)c(Cl)c4)c32)c1C [Example 69, 3-[4-(3-Diethylaminopropylcarbamoyl)-3,5-dimethyl-1H-pyrrol-2-ylmethylene]-2-oxo-2,3-dihydro-1H-indole-4-carboxylic Acid (3-chloro-4-methoxyphenyl)amide] |
| – | – | < 4.00 | – | – | CCN(CC)CCNC(=O)c1c(C(C)C)[nH]c(/C=C2\C(=O)Nc3ccc(Br)cc32)c1C(C)C [Example 71] |
| – | – | < 4.00 | < 4.00 | – | Cc1[nH]c(/C=C2\C(=O)Nc3ccc(S(=O)(=O)N(C)C)cc32)c(C)c1C(=O)NCCN1CCCC1 [Example 82, 5-(5-Dimethylsulfamoyl-2-oxo-1,2-dihydroindol-3-ylidenemethyl)-2,4-dimethyl-1H-pyrrole-3-carboxylic Acid (2-pyrrolidin-1-ylethyl)amide] |
| – | – | – | < 4.00 | – | Cc1[nH]c(/C=C2\C(=O)Nc3ccc(S(=O)(=O)Nc4ccccc4)cc32)c(C)c1C(=O)N1CCN(C)CC1 [Example 86, 3-[3,5-Dimethyl-4-(4-methylpiperazine-1-carbonyl)-1H-pyrrol-2-ylmethylene]-2-oxo-2,3-dihydro-1H-indole-5-sulfonic Acid Phenylamide] |
| – | – | < 4.00 | – | – | CCN(CC)CCNC(=O)c1c(C)[nH]c(/C=C2\C(=O)Nc3ccc(S(=O)(=O)N(C)C)cc32)c1C [Example 87, 5-(5-Dimethylsulfamoyl-2-oxo-1,2-dihydroindol-3-ylidenemethyl)-2,4-dimethyl-1H-pyrrole-3-carboxylic Acid (2-diethylaminoethyl)amide] |
| 5.13 | 5.14 | – | < 4.00 | 8.22 | CNS(=O)(=O)c1ccc2c(c1)/C(=C/c1[nH]cc(C(=O)O)c1C)C(=O)N2 [Example 115, 4-Methyl-5-(5-methylsulfamoyl-2-oxo-1,2-dihydro-indol-3-ylidenemethyl)-1H-pyrrole-3-carboxylic Acid] |
| < 4.00 | < 4.70 | – | < 4.00 | > 9.30 | CCOC(=O)CNC(=O)c1c[nH]c(/C=C2\C(=O)Nc3ccc(S(=O)(=O)NC)c(C)c32)c1C [Example 116, {[4-Methyl-5-(4-methyl-5-methylsulfamoyl-2-oxo-1,2-dihydro-indol-3-ylidenemethyl)-1H-pyrrole-3-carbonyl]-amino}-acetic Acid Ethyl Ester] |
| – | – | < 4.00 | < 4.00 | – | CCOC(=O)CNC(=O)c1c[nH]c(/C=C2\C(=O)Nc3ccc(S(=O)(=O)NC)cc32)c1C [Example 117, {[4-Methyl-5-(5-methylsulfamoyl-2-oxo-1,2-dihydro-indol-3-ylidenemethyl)-1H-pyrrole-3-carbonyl]-amino}-acetic Acid Ethyl Ester] |
| 5.92 | 5.71 | – | < 4.00 | 8.70 | CNS(=O)(=O)c1ccc2c(c1)/C(=C/c1[nH]cc(C(=O)NCC(=O)O)c1C)C(=O)N2 [Example 118, {[4-Methyl-5-(5-methylsulfamoyl-2-oxo-1,2-dihydro-indol-3-ylidenemethyl)-1H-pyrrole-3-carbonyl]-amino}-acetic Acid] |

Source: patent US7320996B2, “Indolinone protein kinase inhibitors and cyclooxygenase inhibitors for use in combination therapy for the treatment of cancer” (Sugen, Inc, priority 2001, dated 2008)
